Experimental data: patent publication US10227342B2 (ARIAD PHARMACEUTICALS, INC., priority 2014, dated 2019)

Key:
Assay type in all cases: cell-based
[1] = biological target: human EGFR exon 20 insertion NPG (H773_V774insNPG) (Homo sapiens, UniProt P00533, INS773NPG, cells depend on it); assay: Ba/F3-EGFR-Exon20-NPG cell anti-proliferative assay (CellTiter 96 MTS, 72 h); details: read-out: EGFR exon 20 NPG insertion IC50
Method: (§1) Ba/F3 cells expressing EGFR exon 20 insertions (named Ba/F3-EGFR-Exon20-NPG or Ba/F3-EGFR-Exon20-ASV) can proliferate in the absence of IL-3. The anti-proliferative activity of compounds were determined as follows: BaF3-EGFR-Exon20 cells (NPG or ASV) seeded in 96 well plates (2500 cells/well) were treated with test compound (dissolved in DMSO) at a series of concentrations (4-fold dilution, top concentration: 10,000 nM). The plates were incubated for 72 h in a 37° C. incubator with 5% CO2, and the number of viable cells in each well were measured indirectly by CellTiter 96® Aqueous One Solution Cell Proliferation Assay (Promega) This assay is a colorimetric method for determining the number of viable cells through measurement of their metabolic activity by detection of enzymatic conversion of tetrazolium salts into blue formazan derivatives. Reagent (20 μL) was added into each well, and the plates were returned to the incubator for 2 h. The absorbance in each well was then measured at 490 nm using an Envision plate reader (Perkin Elmer).

[2] = biological target: human EGFR exon 20 insertion ASV (V769_D770insASV) (Homo sapiens (Human), UniProt P00533, INS769ASV); assay: Ba/F3-EGFR-Exon20-ASV cell anti-proliferative assay (CellTiter 96 MTS, 72 h); details: Ba/F3-EGFR-Exon20-ASV cells;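 note: Ba/F3 cells bearing the EGFR exon 20 ASV insertion, a line able to proliferate without IL-3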
Chain of human EGFR exon 20 insertion ASV (V769_D770insASV) (P00533 other isoform, or with tags, fused parts or gaps ins ASV behind 769): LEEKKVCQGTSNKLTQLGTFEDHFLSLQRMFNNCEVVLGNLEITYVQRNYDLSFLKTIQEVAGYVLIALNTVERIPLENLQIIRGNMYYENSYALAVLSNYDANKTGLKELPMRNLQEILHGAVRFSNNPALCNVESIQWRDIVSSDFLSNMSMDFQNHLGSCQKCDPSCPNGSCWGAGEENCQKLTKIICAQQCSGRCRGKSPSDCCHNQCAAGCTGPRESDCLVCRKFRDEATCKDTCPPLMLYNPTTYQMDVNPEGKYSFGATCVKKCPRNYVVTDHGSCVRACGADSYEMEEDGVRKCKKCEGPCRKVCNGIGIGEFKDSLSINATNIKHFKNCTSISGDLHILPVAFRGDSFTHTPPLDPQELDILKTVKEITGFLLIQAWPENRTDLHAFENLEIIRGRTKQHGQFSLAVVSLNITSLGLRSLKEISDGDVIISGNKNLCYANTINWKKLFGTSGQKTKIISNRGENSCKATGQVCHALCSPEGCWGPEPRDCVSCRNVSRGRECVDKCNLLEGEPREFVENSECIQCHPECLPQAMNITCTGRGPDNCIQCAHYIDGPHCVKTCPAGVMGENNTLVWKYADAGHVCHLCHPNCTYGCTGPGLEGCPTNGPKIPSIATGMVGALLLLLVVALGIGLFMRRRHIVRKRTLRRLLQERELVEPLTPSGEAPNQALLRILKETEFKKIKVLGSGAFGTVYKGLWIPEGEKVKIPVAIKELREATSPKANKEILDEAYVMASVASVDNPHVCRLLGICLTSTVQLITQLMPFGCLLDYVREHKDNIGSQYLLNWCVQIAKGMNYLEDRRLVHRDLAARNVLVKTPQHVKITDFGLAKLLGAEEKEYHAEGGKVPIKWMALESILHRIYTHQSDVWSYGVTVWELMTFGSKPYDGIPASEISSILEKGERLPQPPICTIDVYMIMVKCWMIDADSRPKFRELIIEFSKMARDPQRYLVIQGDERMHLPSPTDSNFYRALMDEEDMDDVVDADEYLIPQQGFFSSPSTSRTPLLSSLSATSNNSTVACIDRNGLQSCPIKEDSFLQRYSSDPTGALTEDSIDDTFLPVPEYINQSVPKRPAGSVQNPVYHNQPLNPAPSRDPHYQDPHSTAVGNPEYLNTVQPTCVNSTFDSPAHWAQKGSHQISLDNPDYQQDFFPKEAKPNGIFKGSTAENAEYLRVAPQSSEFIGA
Method: as §1

[3] = biological target: human EGFR E746-A750 deletion and T790M Mutation (DT) (Homo sapiens (Human), UniProt P00533, DEL746-750/T790M); assay: Ba/F3-EGFR-Del/T790M cell anti-proliferative assay (CellTiter 96 MTS, 72 h); details: Ba/F3-EGFR-Del/T790M cells; read-out: EGFR exon 19 deletion and T790M mutation IC50
Chain of human EGFR E746-A750 deletion and T790M Mutation (DT) (P00533 other isoform, or with tags, fused parts or gaps T790M/del E746-A750): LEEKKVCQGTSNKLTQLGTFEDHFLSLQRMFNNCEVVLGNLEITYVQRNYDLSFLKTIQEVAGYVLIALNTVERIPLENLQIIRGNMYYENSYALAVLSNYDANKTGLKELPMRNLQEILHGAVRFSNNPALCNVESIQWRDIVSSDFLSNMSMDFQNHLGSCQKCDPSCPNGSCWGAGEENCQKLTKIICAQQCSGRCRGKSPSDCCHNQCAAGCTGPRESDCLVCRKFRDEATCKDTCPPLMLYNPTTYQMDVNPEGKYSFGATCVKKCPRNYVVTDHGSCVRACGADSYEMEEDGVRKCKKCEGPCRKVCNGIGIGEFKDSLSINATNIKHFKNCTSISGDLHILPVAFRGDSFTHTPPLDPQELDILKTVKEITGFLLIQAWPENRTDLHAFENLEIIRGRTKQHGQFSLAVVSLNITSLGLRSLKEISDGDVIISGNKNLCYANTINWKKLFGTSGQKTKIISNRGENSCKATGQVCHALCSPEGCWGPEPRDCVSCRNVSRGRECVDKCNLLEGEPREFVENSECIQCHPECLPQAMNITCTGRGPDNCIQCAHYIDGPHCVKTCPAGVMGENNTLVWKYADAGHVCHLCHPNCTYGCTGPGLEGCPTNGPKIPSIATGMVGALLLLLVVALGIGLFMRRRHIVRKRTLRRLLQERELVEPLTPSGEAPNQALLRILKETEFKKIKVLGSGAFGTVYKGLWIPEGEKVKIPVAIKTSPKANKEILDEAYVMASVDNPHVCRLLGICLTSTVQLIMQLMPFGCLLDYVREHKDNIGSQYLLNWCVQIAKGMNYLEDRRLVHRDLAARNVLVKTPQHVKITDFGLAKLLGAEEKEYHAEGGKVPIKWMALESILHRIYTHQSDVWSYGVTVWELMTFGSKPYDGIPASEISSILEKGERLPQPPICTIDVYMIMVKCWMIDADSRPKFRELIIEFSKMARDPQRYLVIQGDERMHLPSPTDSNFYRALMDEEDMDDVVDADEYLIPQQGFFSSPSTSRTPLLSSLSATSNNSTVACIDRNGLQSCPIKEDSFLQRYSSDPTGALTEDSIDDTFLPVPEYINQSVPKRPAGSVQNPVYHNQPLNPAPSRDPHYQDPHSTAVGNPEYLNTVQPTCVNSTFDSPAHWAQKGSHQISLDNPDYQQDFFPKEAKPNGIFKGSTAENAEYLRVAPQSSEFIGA

[4] = biological target: Her2 exon 20 YVMA insertion (A775_G776ins YVMA) (Homo sapiens (Human), UniProt P04626, INS775YVMA); assay: Ba/F3-Her2 Exon20 YVMA cell anti-proliferative assay (CellTiter 96 MTS, 72 h); details: Ba/F3-Her2 Exon20 YVMA cells
Chain of Her2 exon 20 YVMA insertion (A775_G776ins YVMA) (P04626 other isoform, or with tags, fused parts or gaps ins YVMA behind 775): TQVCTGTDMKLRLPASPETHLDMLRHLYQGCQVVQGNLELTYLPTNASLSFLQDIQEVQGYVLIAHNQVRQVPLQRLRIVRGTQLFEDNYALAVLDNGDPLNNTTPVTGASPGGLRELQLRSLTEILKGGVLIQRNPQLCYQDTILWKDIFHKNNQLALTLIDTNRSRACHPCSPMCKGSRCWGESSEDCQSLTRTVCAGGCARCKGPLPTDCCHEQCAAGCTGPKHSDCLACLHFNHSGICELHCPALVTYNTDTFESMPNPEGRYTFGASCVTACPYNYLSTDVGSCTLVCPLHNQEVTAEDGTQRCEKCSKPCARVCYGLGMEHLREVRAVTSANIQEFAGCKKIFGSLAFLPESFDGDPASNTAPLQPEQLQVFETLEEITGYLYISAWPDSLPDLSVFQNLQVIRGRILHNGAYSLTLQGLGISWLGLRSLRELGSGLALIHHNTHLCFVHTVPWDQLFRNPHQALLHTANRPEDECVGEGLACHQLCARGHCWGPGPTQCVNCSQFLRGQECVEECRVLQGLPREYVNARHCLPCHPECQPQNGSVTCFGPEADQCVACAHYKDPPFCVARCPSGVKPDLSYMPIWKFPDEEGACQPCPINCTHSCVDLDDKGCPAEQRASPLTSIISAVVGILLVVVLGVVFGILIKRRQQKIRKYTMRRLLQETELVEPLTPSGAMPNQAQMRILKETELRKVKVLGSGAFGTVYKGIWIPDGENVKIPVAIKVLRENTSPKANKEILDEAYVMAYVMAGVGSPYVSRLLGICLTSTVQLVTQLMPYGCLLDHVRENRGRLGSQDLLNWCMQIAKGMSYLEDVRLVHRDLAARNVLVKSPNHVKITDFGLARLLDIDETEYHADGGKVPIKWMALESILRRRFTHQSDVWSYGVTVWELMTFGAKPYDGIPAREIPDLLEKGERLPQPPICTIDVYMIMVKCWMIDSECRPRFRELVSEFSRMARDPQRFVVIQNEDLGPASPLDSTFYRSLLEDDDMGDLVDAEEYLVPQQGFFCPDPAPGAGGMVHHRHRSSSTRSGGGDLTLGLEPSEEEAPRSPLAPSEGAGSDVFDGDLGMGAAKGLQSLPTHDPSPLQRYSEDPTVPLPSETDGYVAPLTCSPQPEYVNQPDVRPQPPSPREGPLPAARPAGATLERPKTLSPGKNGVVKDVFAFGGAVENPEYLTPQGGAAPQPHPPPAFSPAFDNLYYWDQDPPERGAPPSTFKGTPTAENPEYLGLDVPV
Source text: Ba/F3 cells expressing Her2 Exon20 YVMA insertions (named Ba/F3-Her2 Exon20 YVMA) can proliferate in the absence of IL-3.

Chain of human EGFR exon 20 insertion NPG (H773_V774insNPG) (P00533 with tags, fused parts or gaps INS773NPG limits assumed): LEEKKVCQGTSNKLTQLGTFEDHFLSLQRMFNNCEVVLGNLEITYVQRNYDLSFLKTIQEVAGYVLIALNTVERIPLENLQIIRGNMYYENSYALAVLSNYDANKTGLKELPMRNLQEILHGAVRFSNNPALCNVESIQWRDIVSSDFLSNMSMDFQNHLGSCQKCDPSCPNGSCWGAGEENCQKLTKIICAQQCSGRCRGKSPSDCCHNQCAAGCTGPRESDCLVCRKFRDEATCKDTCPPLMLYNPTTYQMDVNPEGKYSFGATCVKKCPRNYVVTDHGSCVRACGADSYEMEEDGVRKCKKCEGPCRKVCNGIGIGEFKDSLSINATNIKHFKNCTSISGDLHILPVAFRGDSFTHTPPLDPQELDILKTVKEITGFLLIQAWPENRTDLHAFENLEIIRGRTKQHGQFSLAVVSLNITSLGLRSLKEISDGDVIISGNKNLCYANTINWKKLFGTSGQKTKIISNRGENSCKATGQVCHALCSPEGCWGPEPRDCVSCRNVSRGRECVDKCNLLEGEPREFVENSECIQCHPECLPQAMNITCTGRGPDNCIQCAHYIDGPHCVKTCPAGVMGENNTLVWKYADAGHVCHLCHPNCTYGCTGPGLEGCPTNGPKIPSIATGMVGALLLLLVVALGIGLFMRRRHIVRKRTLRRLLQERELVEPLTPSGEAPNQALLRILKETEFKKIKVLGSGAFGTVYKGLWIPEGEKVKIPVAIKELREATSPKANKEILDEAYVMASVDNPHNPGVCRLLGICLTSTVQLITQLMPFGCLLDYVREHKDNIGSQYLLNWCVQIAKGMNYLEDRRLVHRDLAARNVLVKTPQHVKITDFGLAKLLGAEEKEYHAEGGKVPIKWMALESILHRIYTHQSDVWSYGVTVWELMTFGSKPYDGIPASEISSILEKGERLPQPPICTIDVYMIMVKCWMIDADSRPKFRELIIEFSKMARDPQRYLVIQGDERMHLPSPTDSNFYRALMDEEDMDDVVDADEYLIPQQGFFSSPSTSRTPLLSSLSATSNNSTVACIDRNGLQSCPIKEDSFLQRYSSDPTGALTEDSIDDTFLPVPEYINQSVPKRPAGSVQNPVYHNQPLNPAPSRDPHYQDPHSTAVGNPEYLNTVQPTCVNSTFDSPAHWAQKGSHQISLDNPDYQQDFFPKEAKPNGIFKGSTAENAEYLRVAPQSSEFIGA

Row | SMILES | IC50 [1] [nM] | IC50 [2] [nM] | IC50 [3] [nM] | IC50 [4] [nM]
1 | C=CC(=O)Nc1cc(Nc2ncc(C(=O)OC)c(-c3cn(N(C)C)c4ccccc34)n2)c(OC)cc1N(C)CCN(C)C [Example 76, methyl 2-((5-acrylamido-4-((2-(dimethylamino)ethyl)(methyl)amino)-2-methoxyphenyl)amino)-4-(1-(dimethylamino)-1H-indol-3-yl)pyrimidine-5-carboxylate] | < 100 | < 100 | < 100 | < 100
2 | C=CC(=O)Nc1cc(Nc2ncc(Cl)c(-c3cnn4ccccc34)n2)c(OC)cc1OCCN(C)C [Example 51, N-(5-((5-chloro-4-(pyrazolo[1,5-a]pyridin-3-yl)pyrimidin-2-yl)amino)-2-(2-(dimethylamino)ethoxy)-4-methoxyphenyl)acrylamide] | < 100 | 100 to 500 | < 100 | 100 to 500
3 | C=CC(=O)Nc1cc(Nc2ncc(C(=O)OC(C)C)c(-n3ccc4ccccc43)n2)c(OC)cc1N(C)C[C@H]1CCCN1C [Example 61, isopropyl (R)-2-((5-acrylamido-2-methoxy-4-(methyl((1-methylpyrrolidin-2-yl)methyl)amino)phenyl)amino)-4-(1H-indol-1-yl)pyrimidine-5-carboxylate] | < 100 | < 100 | < 100 | 100 to 500
4 | C=CC(=O)Nc1cc(Nc2ncc(C(=O)OC(C)C)c(-c3coc4ccccc34)n2)c(OC)cc1N(C)C[C@H]1CCCN1C [Example 62, isopropyl (R)-2-((5-acrylamido-2-methoxy-4-(methyl((1-methylpyrrolidin-2-yl)methyl)amino)phenyl)amino)-4-(benzofuran-3-yl)pyrimidine-5-carboxylate] | < 100 | < 100 | < 100 | 100 to 500
5 | C=CC(=O)Nc1cc(Nc2ncc(C(=O)OC3CN(C)C3)c(-c3cn(C)c4ccccc34)n2)c(OC)cc1N(C)CCN(C)C [Example 12, 1-methylazetidin-3-yl 2-((5-acrylamido-4-((2-(dimethylamino)ethyl)(methyl)amino)-2-methoxyphenyl)amino)-4-(1-methyl-1H-indol-3-yl)pyrimidine-5-carboxylate] | > 1000 | > 1000 | > 1000 | > 1000
6 | C=CC(=O)Nc1cc(Nc2ncc(C(=O)OC(C)C)c(-c3cn(C(C)=O)c4ccccc34)n2)c(OC)cc1N(C)CCN(C)C [Example 78, isopropyl 4-(1-acetyl-1H-indol-3-yl)-2-((5-acrylamido-4-((2-(dimethylamino)ethyl)(methyl)amino)-2-methoxyphenyl)amino)pyrimidine-5-carboxylate] | < 100 | < 100 | < 100 | < 100
7 | C=CC(=O)Nc1cc(Nc2ncc(C(=O)OCC)c(-c3cn(C)c4ccccc34)n2)c(OC)cc1N(C)C[C@H]1CCCN1C [Example 65, ethyl (R)-2-((5-acrylamido-2-methoxy-4-(methyl((1-methylpyrrolidin-2-yl)methyl)amino)phenyl)amino)-4-(1-methyl-1H-indol-3-yl)pyrimidine-5-carboxylate] | < 100 | < 100 | < 100 | < 100
8 | C=CC(=O)Nc1cc(Nc2ncc(C(=O)OC(C)CC)c(-c3cn(C)c4ccccc34)n2)c(OC)cc1N(C)CCN(C)C (stereo not drawn) [Example 29, sec-butyl 2-((5-acrylamido-4-((2-(dimethylamino)ethyl)(methyl)amino)-2-methoxyphenyl)amino)-4-(1-methyl-1H-indol-3-yl)pyrimidine-5-carboxylate] | < 100 | < 100 | < 100 | < 100
9 | C=CC(=O)Nc1cc(Nc2ncnc(-c3c(C4=CCOCC4)n(C)c4ccccc34)n2)c(OC)cc1N(C)CCN(C)C [Example 2, N-(5-((4-(2-(3,6-dihydro-2H-pyran-4-yl)-1-methyl-1H-indol-3-yl)-1,3,5-triazin-2-yl)amino)-2-((2-(dimethylamino)ethyl)(methyl)amino)-4-methoxyphenyl)acrylamide] | < 100 | < 100 | < 100 | 100 to 500
10 | C=CC(=O)Nc1cc(Nc2ncc(C(=O)OC(C)C)c(-c3cnn4ccccc34)n2)c(OC)cc1N(C)CCN(C)C [Example 32, isopropyl 2-((5-acrylamido-4-((2-(dimethylamino)ethyl)(methyl)amino)-2-methoxyphenyl)amino)-4-(pyrazolo[1,5-a]pyridin-3-yl)pyrimidine-5-carboxylate] | < 100 | < 100 | < 100 | < 100
11 | C=CC(=O)Nc1cc(Nc2ncc(C(=O)OC(C)C)c(-c3nn(C)c4ccccc34)n2)c(OC)cc1N(C)CCN(C)C [Example 59, isopropyl 2-((5-acrylamido-4-((2-(dimethylamino)ethyl)(methyl)amino)-2-methoxyphenyl)amino)-4-(1-methyl-1H-indazol-3-yl)pyrimidine-5-carboxylate] | < 100 | < 100 | < 100 | < 100
12 | C=CC(=O)Nc1cc(Nc2ncc(C(=O)OC(C)C)c(-n3ccc4ccccc43)n2)c(OC)cc1N(C)CCN(C)C [Example 15, isopropyl 2-((5-acrylamido-4-((2-(dimethylamino)ethyl)(methyl)amino)-2-methoxyphenyl)amino)-4-(1H-indol-1-yl)pyrimidine-5-carboxylate] | < 100 | < 100 | < 100 | < 100
13 | C=CC(=O)Nc1cc(Nc2ncc(NC(=O)CC)c(-c3nn(C)c4ccccc34)n2)c(OC)cc1N(C)CCN(C)C [Example 60, N-(2-((2-(dimethylamino)ethyl)(methyl)amino)-4-methoxy-5-((4-(1-methyl-1H-indazol-3-yl)-5-propionamidopyrimidin-2-yl)amino)phenyl)acrylamide] | < 100 | < 100 | < 100 | > 1000
14 | C=CC(=O)Nc1cc(Nc2ncc(C(=O)OC)c(-c3cn(C)c4ccccc34)n2)c(OC)cc1C#CCN(C)C [Example 68, methyl 2-((5-acrylamido-4-(3-(dimethylamino)prop-1-yn-1-yl)-2-methoxyphenyl)amino)-4-(1-methyl-1H-indol-3-yl)pyrimidine-5-carboxylate] | < 100 | 100 to 500 | < 100 | 500 to 1000
15 | C=CC(=O)Nc1ccc(OC)c(Nc2ncc(C#N)c(-c3cn(C)c4cc(OCCCN(C)C)ccc34)n2)c1 [Example 19, N-(3-((5-cyano-4-(6-(3-(dimethylamino)propoxy)-1-methyl-1H-indol-3-yl)pyrimidin-2-yl)amino)-4-methoxyphenyl)acrylamide] | < 100 | 100 to 500 | < 100 | 500 to 1000
16 | C=CC(=O)Nc1cc(Nc2nccc(-c3cn(C)c4ccc(C(=O)OC)cc34)n2)c(OC)cc1N(C)CCN(C)C [Example 81, methyl 3-(2-((5-acrylamido-4-((2-(dimethylamino)ethyl)(methyl)amino)-2-methoxyphenyl)amino)pyrimidin-4-yl)-1-methyl-1H-indole-5-carboxylate] | < 100 | 100 to 500 | < 100 | 500 to 1000
17 | C=CC(=O)Nc1cc(Nc2ncc(C(=O)OC(C)C)c(-n3cc(C)c4ccccc43)n2)c(OC)cc1N(C)CCN(C)C [Example 97, isopropyl 2-((5-acrylamido-4-((2-(dimethylamino)ethyl)(methyl)amino)-2-methoxyphenyl)amino)-4-(3-methyl-1H-indol-1-yl)pyrimidine-5-carboxylate] | < 100 | 100 to 500 | < 100 | 100 to 500
18 | C=CC(=O)Nc1cc(Nc2ncc(C(=O)OC)c(-c3cn(C)c4ccccc34)n2)c(OC)cc1N(C)CC1CCCN1C (stereo not drawn) [Example 16, methyl 2-((5-acrylamido-2-methoxy-4-(methyl((1-methylpyrrolidin-2-yl)methyl)amino)phenyl)amino)-4-(1-methyl-1H-indol-3-yl)pyrimidine-5-carboxylate] | < 100 | < 100 | < 100 | 100 to 500
19 | C=CC(=O)Nc1cc(Nc2ncc(C(=O)OC(C)C)c(-c3cn(C4CC4)c4ccccc34)n2)c(OC)cc1N(C)CCN(C)C [Example 79, isopropyl 2-((5-acrylamido-4-((2-(dimethylamino)ethyl)(methyl)amino)-2-methoxyphenyl)amino)-4-(1-cyclopropyl-1H-indol-3-yl)pyrimidine-5-carboxylate] | < 100 | < 100 | < 100 | 100 to 500
20 | C=CC(=O)Nc1ccc(OC)c(Nc2ncc(C#N)c(-c3cn(C)c4cc(OCC5CCCN5C)ccc34)n2)c1 (stereo not drawn) [Example 21, N-(3-((5-cyano-4-(1-methyl-6-((1-methylpyrrolidin-2-yl)methoxy)-1H-indol-3-yl)pyrimidin-2-yl)amino)-4-methoxyphenyl)acrylamide] | < 100 | 500 to 1000 | < 100 | 500 to 1000
21 | C=CC(=O)Nc1cc(Nc2ncc(C(=O)OC)c(-n3ccc4ccccc43)n2)c(OC)cc1N(C)C[C@H]1CCCN1C [Example 63, methyl (R)-2-((5-acrylamido-2-methoxy-4-(methyl((1-methylpyrrolidin-2-yl)methyl)amino)phenyl)amino)-4-(1H-indol-1-yl)pyrimidine-5-carboxylate] | < 100 | < 100 | < 100 | 500 to 1000
